This test addresses T1, CRF1R (type 1 receptor for the corticotropin-releasing factor) (Homo sapiens, UniProt P34998).
T1 construct: gene CRHR1
T1 sequence (P34998 24-415): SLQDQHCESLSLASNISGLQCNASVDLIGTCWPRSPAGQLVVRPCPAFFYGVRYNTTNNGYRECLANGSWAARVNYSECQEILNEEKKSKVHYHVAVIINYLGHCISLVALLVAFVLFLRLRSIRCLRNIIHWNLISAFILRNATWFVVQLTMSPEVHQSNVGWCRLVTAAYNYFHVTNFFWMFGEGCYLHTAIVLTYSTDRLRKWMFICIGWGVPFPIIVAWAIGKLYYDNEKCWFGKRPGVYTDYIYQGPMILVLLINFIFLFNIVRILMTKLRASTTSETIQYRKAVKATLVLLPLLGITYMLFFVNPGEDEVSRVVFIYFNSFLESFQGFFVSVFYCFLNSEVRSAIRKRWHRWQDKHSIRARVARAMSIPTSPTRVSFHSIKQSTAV
As to the kind of experiment: inhibition of cAMP accumulation stimulated by […] Tyr0-sauvagine in HEK […] cells stably expressing human CRF1R; also […] shift of agonist potency at […] M43. Type of test: cell-based.

SMILES strings stand for the structures.

Usually IC50 stands for the concentration that inhibits the measured activity by half. On to `CCCCN(CC)c1nc(C)nc2c1s/c(=N\O)n2-c1c(Cl)cc(Cl)cc1Cl` [M43], for which the half-maximal inhibitory concentration (IC50) is 43.5 nM.

(Values after PMC12467512, “Pharmacological Characterization of the Novel CRF1 Receptor Antagonist, Thiazolo[4,5-d] Pyrimidine Analog, M43” (Biomolecules, 2025).)
